From US20240366779A1, “SELECTIVE DRUG RELEASE FROM INTERNALIZED CONJUGATES OF BIOLOGICALLY ACTIVE COMPOUNDS” (priority 2021, published 2024)
Numbered stars: 1 amine (or outer) side, 2 acyl side, 3 side chain; on linkers, the order of the positions; unused ones are H or OH. Square brackets hold non-standard residues; d marks the D form. Ends that are not written are not given here. Peptide text beside a SMILES is read from it. * marks the point of attachment. Dolaproine = CO[C@@H]([C@@H]1CCCN1)[C@@H](C)C(=O)O; Propanoyl(3-maleimido) = O=C1C=CC(=O)N1CCC(=O)*; Dil = CC[C@H](C)[C@H](NC)[C@@H](CC(=O)O)OC; Gla = N[C@@H](CC(C(=O)O)C(=O)O)C(=O)O; PABC = O=C(OCc1ccc(N[*:1])cc1)[*:2]; X1 = C[C@@H](N*)[C@@H](O)c1ccccc1; Met(O) = CS(=O)CC[C@H](N)C(=O)O; Cit = NC(=O)NCCC[C@H](N)C(=O)O; NMeV = CN[C@H](C(=O)O)C(C)C; Aib = CC(C)(N)C(=O)O

Tests used:
[1] = system: HPAFII cells; assay: In vitro cytotoxicity of Ag1 ADCs (CellTiter-Glo, 96 h); type: cell-based; conditions: Tables 3a and 3b, in words
Method: In vitro cytotoxicity. The cytotoxicity of a tripeptide-based Antibody Drug Conjugate was measured by a cell proliferation assay employing the protocol described in Promega Corp. Technical Bulletin TB288; and Mendoza et al., 2002, Cancer Res. 62:5485-5488), the methods of which are specifically incorporated by reference herein. Briefly, an aliquot of 40 μl of cell culture containing about 400 cells in medium is deposited in each well of a 384-well, opaque-walled plate. A 10 μL aliquot of free drug or Ligand-Drug Conjugate is added to the experimental wells and incubated for 96 h and are then equilibrated to room temperature for approximately 30 minutes whereupon a volume of CellTiter-Glo™ reagent equal to the volume of cell culture medium present in each well is added. The contents are mixed for 2 minutes on an orbital shaker to induce cell lysis and the plate is incubated at room temperature for 10 minutes to stabilize the luminescence signal for recordation.
The italicized values in Tables 3, 3a, and 3b indicate the percentage of cells remaining after 96 hr incubation at the maximum concentration of drug added. For convenience the numbering for the library members of Tables 2 and 2A are retained for the corresponding Drug linker compounds that are incorporated into the ADC of Tables 3, 3a, and 3b.

[2] = biological target: T1, neutrophil elastase (Homo sapiens, UniProt P08246); assay: Neutrophil elastase assay of 8-load ADCs (QToF MS); type: biochemical; conditions: 8-load ADC, 37 C, 3 h; FIG. 6A
T1 sequence (P08246 30-267): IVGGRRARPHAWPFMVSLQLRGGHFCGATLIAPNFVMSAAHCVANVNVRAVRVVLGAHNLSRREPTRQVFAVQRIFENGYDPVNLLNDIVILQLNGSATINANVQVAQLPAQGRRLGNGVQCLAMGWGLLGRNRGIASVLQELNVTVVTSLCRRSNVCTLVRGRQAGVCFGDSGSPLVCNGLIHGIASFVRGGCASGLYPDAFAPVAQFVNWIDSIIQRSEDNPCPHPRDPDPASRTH
Method: To a mixture of 8-load ADC (5 ug), buffer (100 mM tris, 75 mM NaCl, pH 7.5; final concentration), and neutrophil elastase (100 ng) was added water to 20 uL. The reaction was incubated at 37 C for 3 h and then immediately analyzed by a QToF mass spectrometer.

[3] = system: CD30-expressing ALCL and HL cell lines (DEL, Karpas, KMH2, L428, L540cy); assay: In vitro cytotoxicity study of cAC10 ADCs (CellTiter-Glo, 96 hours); type: cell-based; conditions: FIG. 39A-E
Method: ALCL and HL cell lines (DEL, DELBVR8F9, Karpas, KMH2, L428, AND L540cy) were plated in 150 uL complete growth media in 96-well, clear-bottomed, black-walled tissue culture treated plates (Corning). Cell plates were placed at 37° C. and 5% CO2 overnight to allow cells to equilibrate. The ADCs were thawed, and 4×8-point serial dilutions were prepared in RPMI-1640+10% fetal bovine serum (FBS). Fifty uL of each dilution were then added to each cell plate in triplicate. Treated cells were incubated at 37° C. and 5% CO2 for 96 hours. Cell viability was assayed using CellTiter-Glo® Reagent (PROMEGA). Raw data were analyzed in Graphpad Prism (San Diego, CA) using a nonlinear, 4-parameter curve fit model [Y=Bottom+(Top−Bottom)/(1+10^((Log EC50−X)*HillSlope))].

[4] = system: tumor tissue homogenates from HPAF-II, Ramos, SK-Mel-5 and SU-DHL-4 xenograft models; assay: Fluorescence assay: proteolysis of tripeptide library by tumor tissue homogenate; type: biochemical, mouse; conditions: Table 1A; normalized fluorescence averaged across 4 tumor homogenates
Method: (§1) Fluorescence assay. To a 384 well plate was added a mixture of tumor or normal tissue homogenate and citrate buffer (100 mM, pH 4.5; 9 μL) followed by a fluorescently labelled library compound (1 μL; dissolved in 50% MeCN). The reaction was incubated at 37° C. and fluorescence (330 nm excitation, 450 nm emission) was detected several times over a 6-hr. period. The fluorescence fold change was determined by dividing the fluorescence value at each time point with the background fluorescence when no homogenate was added.
Tissue Homogenization. […]
The normalized fluorescence value for tumor homogenate proteolysis is an averaged value for tumor tissue homogenates derived from four mouse xenograft models.
That value was then normalized for each peptide in each homogenate by dividing it by the average value for that homogenate. […] The normalized tumor tissue values of Table 1 were then determined by averaging the normalized fluorescence value for each peptide across all 4 cancer homogenates that were tested. […] The normalized normal tissue values of Table 1 were similarly calculated using homogenized bone marrow. The Tumor/Normal ratios of Table 1A were determined by dividing the normalized tumor tissue values by the normalized normal tissue values.

[5] = system: normal human bone marrow homogenate; assay: Fluorescence assay: proteolysis of tripeptide library by normal tissue homogenate; type: biochemical; conditions: Table 1A, normalized fluorescence at final time point (275-315 min)
Method: as §1
Tissue Homogenization. Normal tissue or tumor tissue from mouse xenografts were suspended in buffer (50 mM Tris, 150 mM KCl, pH 7.0) and added to a tube containing Matrix D lysing beads (mpbio). The tissue was homogenized with a Precellys™ 24 homogenizer. The homogenized sample was centrifuged at 1000×g for 10 min and the resulting supernatant was collected then frozen at −80° C. until further use.
The normalized normal tissue fluorescence values are from proteolysis by normal human bone marrow.
That value was then normalized for each peptide in each homogenate by dividing it by the average value for that homogenate. […] The normalized normal tissue values of Table 1 were similarly calculated using homogenized bone marrow.

[6] = system: neutrophils and reticulocytes (bone marrow); assay: In vivo bone marrow toxicity of non-binding h00 conjugates (neutrophil and reticulocyte counts, tolerability); conditions: rat, in words
Excerpt: Toxicity Determinations. Each tripeptide-based Drug Linker compound was reacted with a reduced non-binding antibody to provide a non-binding control ADC and injected i.v. into female Sprague Dawley rats at various concentrations. Animals were euthanized on day 4 or 28 post dose.
Having shown that ADC efficacy has been at least retained on replacing the dipeptide with most of the selected tripeptide sequences, differences in in vivo cytotoxicity against normal bone marrow tissue was explored by replacing the antibody targeting the Ag1 antigen with a non-binding control (h00) antibody. Each of the resulting non-targeting conjugates were then administered at 10 mg/Kg to rats, whose blood were analyzed at day 5 post-administration for neutrophil and reticulocyte counts as a proxy for bone marrow toxicity compared to sham treated animals. […]
A subset of non-targeting conjugates were administered at higher doses to rats to determine the impact on bone marrow depletion. Blood from the doses rats were analyzed at day 8 and day 22 post-administration for neutrophil (FIG. 2C) and reticulocyte (FIG. 3C) counts as a proxy for bone marrow toxicity compared to sham treated animals. […]

| Molecule | cytotoxicity relative to comparator dipeptide-based ADC (1) [1] | efficacy relative to comparator dipeptide-based ADC (1) [1] | further results |
| --- | --- | --- | --- |
| CC[C@H](C)[C@@H]([C@@H](CC(=O)N1CCC[C@H]1[C@H](OC)[C@@H](C)C(=O)N[C@H](C)[C@@H](O)c1ccccc1)OC)N(C)C(=O)[C@@H](NC(=O)[C@H](C(C)C)N(C)C(=O)OCc1ccc(NC(=O)[C@H](CCCNC(N)=O)NC(=O)[C@H](C)NC(=O)[C@@H](CC(C)C)NC(=O)CCN2C(=O)C=CC2=O)cc1)C(C)C [Compound 8] ({Propanoyl(3-maleimido)}-[dL]A[Cit][PABC][NMeV]V[Dil][Dolaproine]-X1) | less cytotoxic | similarly efficacious |  |
| CC[C@H](C)[C@@H]([C@@H](CC(=O)N1CCC[C@H]1[C@H](OC)[C@@H](C)C(=O)N[C@H](C)[C@@H](O)c1ccccc1)OC)N(C)C(=O)[C@@H](NC(=O)[C@H](C(C)C)N(C)C(=O)OCc1ccc(NC(=O)[C@H](CCC(=O)O)NC(=O)[C@H](CO)NC(=O)[C@H](Cc2ccccc2)NC(=O)CCN2C(=O)C=CC2=O)cc1)C(C)C [Compound 30] ({Propanoyl(3-maleimido)}-FSE[PABC][NMeV]V[Dil][Dolaproine]-X1) | less cytotoxic | similarly efficacious |  |
| CC[C@H](C)[C@@H]([C@@H](CC(=O)N1CCC[C@H]1[C@H](OC)[C@@H](C)C(=O)N[C@H](C)[C@@H](O)c1ccccc1)OC)N(C)C(=O)[C@@H](NC(=O)[C@H](C(C)C)N(C)C(=O)OCc1ccc(NC(=O)[C@H](CC(=O)O)NC(=O)[C@H](C)NC(=O)[C@@H](CC(C)C)NC(=O)CCN2C(=O)C=CC2=O)cc1)C(C)C [Compound 24] ({Propanoyl(3-maleimido)}-[dL]AD[PABC][NMeV]V[Dil][Dolaproine]-X1) | less cytotoxic | similarly efficacious |  |
| CC[C@H](C)[C@@H]([C@@H](CC(=O)N1CCC[C@H]1[C@H](OC)[C@@H](C)C(=O)N[C@H](C)[C@@H](O)c1ccccc1)OC)N(C)C(=O)[C@@H](NC(=O)[C@H](C(C)C)N(C)C(=O)OCc1ccc(NC(=O)[C@H](CCC(=O)O)NC(=O)[C@H](C)NC(=O)[C@@H](CC(C)C)NC(=O)CCN2C(=O)C=CC2=O)cc1)C(C)C [compound 5, mp-dLAE-PABC-MMAE] ({Propanoyl(3-maleimido)}-[dL]AE[PABC][NMeV]V[Dil][Dolaproine]-X1) |  |  | percentage of drug cleaved from the heavy chain by neutrophil elastase [2]: lower than that found for non-targeted ADC 37 |
| CC[C@H](C)[C@@H]([C@@H](CC(=O)N1CCC[C@H]1[C@H](OC)[C@@H](C)C(=O)N[C@H](C)[C@@H](O)c1ccccc1)OC)N(C)C(=O)[C@@H](NC(=O)[C@@H](NC)C(C)C)C(C)C [SGN-1010, MMAE] (H-[NMeV]V[Dil][Dolaproine]-X1) |  |  | cytotoxic activity (cell viability) [3]: all cell lines are sensitive |
| [dL]-Leu-[Met(O)] [DLeu-Leu-Met(O)] |  |  | Normalized Tumor Tissue [4]: 1.70; Normalized Normal Tissue [5]: 0.66 |
| CC[C@H](C)[C@@H]([C@@H](CC(=O)N1CCC[C@H]1[C@H](OC)[C@@H](C)C(=O)N[C@H](C)[C@@H](O)c1ccccc1)OC)N(C)C(=O)[C@@H](NC(=O)[C@H](C(C)C)N(C)C(=O)OCc1ccc(NC(=O)[C@H](CCC(=O)O)NC(=O)[C@H](C)NC(=O)[C@@H](C)NC(=O)CCN2C(=O)C=CC2=O)cc1)C(C)C [Compound 22] ({Propanoyl(3-maleimido)}-[dA]AE[PABC][NMeV]V[Dil][Dolaproine]-X1) | less cytotoxic | similarly efficacious |  |
| CC[C@H](C)[C@@H]([C@@H](CC(=O)N1CCC[C@H]1[C@H](OC)[C@@H](C)C(=O)N[C@H](C)[C@@H](O)c1ccccc1)OC)N(C)C(=O)[C@@H](NC(=O)[C@H](C(C)C)N(C)C(=O)OCc1ccc(NC(=O)[C@H](CC(C(=O)O)C(=O)O)NC(=O)[C@H](C)NC(=O)[C@@H](CC(C)C)NC(=O)CCN2C(=O)C=CC2=O)cc1)C(C)C [Compound 26] ({Propanoyl(3-maleimido)}-[dL]A[Gla][PABC][NMeV]V[Dil][Dolaproine]-X1) | less cytotoxic | similarly efficacious |  |
| CC[C@H](C)[C@@H]([C@@H](CC(=O)N1CCC[C@H]1[C@H](OC)[C@@H](C)C(=O)N[C@H](C)[C@@H](O)c1ccccc1)OC)N(C)C(=O)[C@@H](NC(=O)[C@H](C(C)C)N(C)C(=O)OCc1ccc(NC(=O)[C@H](CCC(=O)O)NC(=O)C(C)(C)NC(=O)[C@@H](CC(C)C)NC(=O)CCN2C(=O)C=CC2=O)cc1)C(C)C [compound 38] ({Propanoyl(3-maleimido)}-[dL][Aib]E[PABC][NMeV]V[Dil][Dolaproine]-X1) | less cytotoxic | less cytotoxic and efficacious | toxicity to bone marrow [6]: less toxic to rat bone marrow |
